Assay results from patent US8980917B2, “Methods for treating or preventing brain infections” (The Johns Hopkins University, priority 2008, dated 2015).
“Also recorded” adds a separate entry of the source. Where two headings read alike, the source gives them in different places.

Columns and labels:
HBMEC [1] = assay: E. coli K1 binding and invasion assays in human BMEC (HBMEC); assay type: cell-based; settings: for E. coli K1 invasion of HBMEC: strain RS218, HBMEC pretreated 30 mins, compared to vehicle control (DMSO); for E. coli K1 invasion of human BMEC monolayers: inhibitors of cPLA2α, Rho kinase, Rac1 and PKC
Experimental: E. coli strain RS218 was grown overnight in BHI broth in the presence of streptomycin (50 μg/ml). Bacteria were resuspended in experimental medium [M199-HamF12 (1:1) containing 5% heat-inactivated fetal bovine serum, 2 mM glutamine, and 1 mM pyruvate] and added in a multiplicity of infection (MOI) of 100:1 to HBMEC grown in collagen-coated 24-well plates at 37° C. in 5% CO2 incubator for 90 min for binding assay as described previously (9, 10, 14, 28). HBMEC were washed four times with PBS to remove unbound bacteria, lysed in 0.025% Triton X-100 and plated for determinations of CFUs. The results were calculated as a percent of the initial inoculum and expressed as percent relative binding compared to percent binding of RS218 in the presence of vehicle control (DMSO). Each set was run in triplicates.
The HBMEC invasion assay with gentamicin treatment was performed to determine the number of viable intracellular bacteria recovered from the infected HBMEC, as previously described (9, 10, 14, 28). E. coli K1 strain RS218 was added to HBMEC as described above for binding assay. HBMEC were subsequently washed with RPMI 1640 and incubated with experimental media containing gentamicin (100 μg/ml) for 1 h to kill extracellular bacteria. The cells were washed again with PBS and lysed in 0.025% Triton X-100. The released intracellular bacteria were enumerated by plating on sheep blood agar plates. The results were calculated as a percent of the initial inoculum and expressed as percent relative invasion compared to percent invasion of RS218 in the presence of vehicle control (DMSO). Each set was run in triplicates.
To examine the effects of inhibitors and antagonists on E. coli K1 binding to and invasion of HBMEC, HBMEC were pretreated with inhibitors or antagonists for 30 mins before addition of E. coli, and then processed for binding and invasion assays as described above.
E. coli strain RS218 (O18:K1:H7), a cerebrospinal fluid isolate from a neonate with meningitis, was grown overnight in brain heart infusion (BHI) broth (Difco Laboratories, Detroit, Mich.). Bacteria were resuspended in experimental medium [M199-HamF12 (1:1) containing 5% heat-inactivated fetal bovine serum, 2 mM glutamine, and 1 mM pyruvate] and added in a multiplicity of infection (MOI) of 100:1 to BMECs grown in collagen-coated 24-well plates at 37° C. in 5% CO2 incubator for 90 min for binding assay, as previously described^11. BMECs were washed four times with PBS to remove unbound bacteria, lysed in 0.025% Triton X-100 and plated for determinations of CFUs. The results were calculated as a percent of the initial inoculum and expressed as percent relative binding compared to percent binding of RS218 in the presence of vehicle control (DMSO). Each set was run in triplicates.
The BMEC invasion assay with gentamicin treatment^11 was performed to determine the number of viable intracellular bacteria recovered from the infected BMECs. E. coli K1 strain RS218 was added to BMEC as described above for binding assay. BMECs were subsequently washed with RPMI 1640 and incubated with experimental media containing gentamicin (100 μg/ml) for 1 h to kill extracellular bacteria. The cells were washed again with PBS, lysed in 0.025% Triton X-100, and the released intracellular bacteria were enumerated by plating on sheep blood agar plates. The results were calculated as a percent of the initial inoculum and expressed as percent relative invasion compared to percent invasion of RS218 in the presence of vehicle control (DMSO). Each set was run in triplicates.
E. coli. Human BMEC association and invasion assays were carried out as described previously (15). Briefly, for association assays, confluent human BMEC in 24-well tissue culture plates were incubated with 10^7 CFU of E. coli at a multiplicity of infection of 100 for 90 minutes at 37° C. […]

HBMEC [2] = settings: pretreatment with microfilament-disrupting agents; previous experiments; cited from earlier work
PKC = assay: Activation of PKC and other signaling molecules in response to microbes in human BMEC; assay type: cell-based; settings: response to type III GBS and E. coli K1 in human BMEC monolayers
Text: We have previously shown that RhoGTPases and PKC contribute to type III GBS and E. coli K1 invasion of BMEC monolayers (1-3), and our next studies were to examine whether cPLA2α activations are related to RhoGTPases and PKC in type III GBS and E. coli K1 invasion of human BMEC monolayers (e.g., up- and down-stream of each other) by using inhibitors of cPLA2α (AACOCF3), Rho kinase (Y-27632), Rac1 (NSC-23766) and PKC (calphostin C).

human BMEC = assay: Type III GBS binding and invasion assays in human BMEC; assay type: cell-based; settings: inhibitors of cPLA2α, Rho kinase, Rac1 and PKC
Experimental: GBS. Logarithmic phase cultures of GBS grown in Todd-Hewitt broth at 37° C. were washed and suspended in tissue culture medium. Approximately 5×10^5 CFUs of GBS were added to confluent human BMEC grown in each well of a 24-well plate (Corning Costar, multiplicity of infection of 5 bacteria/cell). The plates were centrifuged at 800×g for 10 min to promote the contact of GBS to the surface of the human BMEC monolayer, and then they were incubated for 2 hr at 37° C. The monolayers were washed three times with PBS and incubated with medium containing gentamicin (100 μg/ml) and penicillin (5 μg/ml) at 37° for 2 hr to kill extracellular bacteria. The monolayers were washed again, lysed, and viable intracellular bacteria were enumerated by culturing onto sheep blood agar plates. The percent invasion was calculated as (the number of intracellular bacteria divided by the number of bacteria inoculated)×100. Each assay was run in triplicate and also repeated at least twice. In one set of experiments the total GBS associated with human BMEC were quantified by the above procedure except that the incubation with gentamicin/penicillin was omitted.
Briefly, human BMEC were pretreated with AACOCF3 for 60 min, and then processed for type III GBS and E. coli K1 binding and invasion assays, as described above.
We next examined the effect of montelukast on type III GBS and E. coli K1 invasion of human BMEC by the methods described earlier. Briefly, human BMEC were treated with monelukast for 60 min and then processed for binding and invasion assays with type III GBS strain K79 and E. coli K1 strain RS 218.

[3] = cited from earlier work

Compound | E. coli K1 invasion of HBMEC (HBMEC [1]) | inhibition of other signaling molecules (PKC) | E. coli K1 invasion of human BMEC monolayers (HBMEC [1]) | type III GBS invasion of human BMEC monolayers (human BMEC) | also measured
O=C(O)C1(c2ccc3c(c2)OC[C@H](Cc2ccc(-c4ccccc4)cc2)[C@H]3O)CCCC1 [CP105696] | failed to affect E. coli K1 invasion of human BMEC monolayers; also recorded: failed to exhibit any inhibition of E. coli invasion of HBMEC | – | – | – | –
C/C1=C/C(=O)O[C@@H]2C[C@@H](CC[C@H](C)/C=C\C=C\CC1)O[C@@](O)([C@@H]1CSC(=O)N1)C2 [latrunculin A] | – | – | – | – | E. coli invasion of HBMEC (HBMEC [2]): inhibited
C[C@@H](N)[C@H]1CC[C@H](C(=O)Nc2ccncc2)CC1 [Y-27632] | – | did not exhibit any inhibition of other signaling molecules | inhibited type III GBS and E. coli K1 invasion of human BMEC monolayers in a dose-dependent manner | inhibited type III GBS and E. coli K1 invasion of human BMEC monolayers in a dose-dependent manner | –
C=C1[C@@H](C)[C@H]2[C@H](Cc3ccccc3)NC(=O)[C@]23[C@H](OC(C)=O)/C=C/[C@@](C)(O)C(=O)[C@@H](C)C/C=C/[C@H]3[C@@H]1O [cytochalasin D] | – | – | – | – | E. coli invasion of HBMEC (HBMEC [2]): inhibited
CC(C)c1ccc2c(c1)c(SC(C)(C)C)c(CC(C)(C)C(=O)O)n2Cc1ccc(Cl)cc1 [MK886] | significantly inhibited E. coli K1 invasion of HBMEC in a dose-dependent manner | – | – | – | –
calphostin C | – | did not exhibit any inhibition of other signaling molecules | inhibited type III GBS and E. coli K1 invasion of human BMEC monolayers in a dose-dependent manner | inhibited type III GBS and E. coli K1 invasion of human BMEC monolayers in a dose-dependent manner | –
COc1cc(C(=O)NS(=O)(=O)c2ccccc2C)ccc1Cc1cn(C)c2ccc(NC(=O)OC3CCCC3)cc12 [zafirlukast] | effective in inhibiting E. coli invasion of HBMEC in a dose-dependent manner | – | – | – | safety and tolerability in clinical trials ([3]; developed for asthma): safe and well tolerated
CCN(CC)CCCC(C)Nc1nc(C)cc(Nc2ccc3nc(C)cc(N)c3c2)n1 (stereo not drawn) [NSC-23766] | – | did not exhibit any inhibition of other signaling molecules | inhibited type III GBS and E. coli K1 invasion of human BMEC monolayers in a dose-dependent manner | inhibited type III GBS and E. coli K1 invasion of human BMEC monolayers in a dose-dependent manner | –
CC(c1cc2ccccc2s1)N(O)C(N)=O (stereo not drawn) [zileuton, Zileuton] | significantly inhibited E. coli K1 invasion of HBMEC in a dose-dependent manner | – | – | – | safety and tolerability in clinical trials ([3]; developed for asthma): safe and well tolerated
O=C(Nc1cccc2c(=O)cc(-c3nnn[nH]3)oc12)c1ccc(OCCCCc2ccccc2)cc1 [pranlukast] | – | – | – | – | safety and tolerability in clinical trials ([3]; in vivo): safe and well tolerated
